Laboratory results taken from PubChem BioAssay AID2060485 (Molecular Pharmacology Branch, DTP, NCI, 2025).

System: A375 multi-cell spheroids with HUVEC/MSC, viability
Test: Anticancer human tumor A375 cell line growth inhibition [GQUAD];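 further: spheroids exposed to compounds for seven days before readout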
Conditions: for IC50: curve of first compound; for viability, T/C: stronger effect = lower value
In short: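 Viability of tumor cells grown as complex spheroids with endothelial and stromal cells, exposed to drug combinations. Top concentration at or near clinical Cmax (else 10 microM), diluted in half-log increments.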

[1] = second compound 0.0316 µM, first compound 0.0316 µM
[2] = second compound 0.0316 µM, first compound 0.1 µM
[3] = second compound 0.0316 µM, first compound 0.316 µM
[4] = second compound 0.0316 µM, first compound 1 µM
[5] = second compound 0.0316 µM, first compound 3.16 µM
[6] = second compound 0.0316 µM, first compound 10 µM
[7] = second compound 0.1 µM, first compound 0.0316 µM
[8] = second compound 0.1 µM, first compound 0.1 µM
[9] = second compound 0.1 µM, first compound 0.316 µM
[10] = second compound 0.1 µM, first compound 1 µM
[11] = second compound 0.1 µM, first compound 3.16 µM
[12] = second compound 0.1 µM, first compound 10 µM
[13] = second compound 0.316 µM, first compound 0.0316 µM
[14] = second compound 0.316 µM, first compound 0.1 µM
[15] = second compound 0.316 µM, first compound 0.316 µM
[16] = second compound 0.316 µM, first compound 1 µM
[17] = second compound 0.316 µM, first compound 3.16 µM
[18] = second compound 0.316 µM, first compound 10 µM
[19] = second compound 1 µM, first compound 0.0316 µM
[20] = second compound 1 µM, first compound 0.1 µM
[21] = second compound 1 µM, first compound 0.316 µM
[22] = second compound 1 µM, first compound 1 µM
[23] = second compound 1 µM, first compound 3.16 µM
[24] = second compound 1 µM, first compound 10 µM
[25] = second compound 3.16 µM, first compound 0.0316 µM
[26] = second compound 3.16 µM, first compound 0.1 µM
[27] = second compound 3.16 µM, first compound 0.316 µM
[28] = second compound 3.16 µM, first compound 1 µM
[29] = second compound 3.16 µM, first compound 3.16 µM
[30] = second compound 3.16 µM, first compound 10 µM
[31] = second compound 10 µM, first compound 0.0316 µM
[32] = second compound 10 µM, first compound 0.1 µM
[33] = second compound 10 µM, first compound 0.316 µM
[34] = second compound 10 µM, first compound 1 µM
[35] = second compound 10 µM, first compound 3.16 µM
[36] = second compound 10 µM, first compound 10 µM

Compound: CC(C)n1c(=O)n(C)c2cnc3cc(F)c(-c4ccc(OCCCN5CCCCC5)nc4)cc3c21 + Cc1[nH]c2ccc(F)cc2c1-c1nc2c3cccnc3c3ncccc3c2[nH]1
- IC50 (second compound 0.0316 µM): > 10000 nM
- IC50 (second compound 0.1 µM): > 10000 nM
- IC50 (second compound 0.316 µM): > 10000 nM
- IC50 (second compound 1 µM): > 10000 nM
- IC50 (second compound 3.16 µM): 5040 nM
- IC50 (second compound 10 µM): 9550 nM
- viability, T/C [1]: 92.3%
- viability, T/C [2]: 93.3%
- viability, T/C [3]: 91.1%
- viability, T/C [4]: 96.3%
- viability, T/C [5]: 109%
- viability, T/C [6]: 91.1%
- viability, T/C [7]: 98.2%
- viability, T/C [8]: 89.7%
- viability, T/C [9]: 97.2%
- viability, T/C [10]: 95.9%
- viability, T/C [11]: 113%
- viability, T/C [12]: 96.3%
- viability, T/C [13]: 92.5%
- viability, T/C [14]: 91.8%
- viability, T/C [15]: 112%
- viability, T/C [16]: 96.7%
- viability, T/C [17]: 106%
- viability, T/C [18]: 90%
- viability, T/C [19]: 89.9%
- viability, T/C [20]: 98.1%
- viability, T/C [21]: 97.8%
- viability, T/C [22]: 96%
- viability, T/C [23]: 116%
- viability, T/C [24]: 93.7%
- viability, T/C [25]: 83.5%
- viability, T/C [26]: 80.2%
- viability, T/C [27]: 92.7%
- viability, T/C [28]: 73%
- viability, T/C [29]: 65.2%
- viability, T/C [30]: 29.3%
- viability, T/C [31]: 106%
- viability, T/C [32]: 101%
- viability, T/C [33]: 101%
- viability, T/C [34]: 88.4%
- viability, T/C [35]: 81.2%
- viability, T/C [36]: 47.7%

Compound: CC1COCCN1c1cc(-c2ccnn2C)c2ccnc(-c3ccn[nH]3)c2n1 (stereo not drawn) + Cc1[nH]c2ccc(F)cc2c1-c1nc2c3cccnc3c3ncccc3c2[nH]1
- IC50 (second compound 0.0316 µM): 628 nM
- IC50 (second compound 0.1 µM): 613 nM
- IC50 (second compound 0.316 µM): 454 nM
- IC50 (second compound 1 µM): 384 nM
- IC50 (second compound 3.16 µM): 35.1 nM
- IC50 (second compound 10 µM): 52.7 nM
- viability, T/C [1]: 111%
- viability, T/C [2]: 108%
- viability, T/C [3]: 75.3%
- viability, T/C [4]: 33.3%
- viability, T/C [5]: 13.1%
- viability, T/C [6]: 12.3%
- viability, T/C [7]: 116%
- viability, T/C [8]: 113%
- viability, T/C [9]: 66.4%
- viability, T/C [10]: 39%
- viability, T/C [11]: 12.2%
- viability, T/C [12]: 10.8%
- viability, T/C [13]: 114%
- viability, T/C [14]: 128%
- viability, T/C [15]: 62.6%
- viability, T/C [16]: 34%
- viability, T/C [17]: 13.5%
- viability, T/C [18]: 12.7%
- viability, T/C [19]: 97.7%
- viability, T/C [20]: 87.3%
- viability, T/C [21]: 52.1%
- viability, T/C [22]: 30%
- viability, T/C [23]: 15.6%
- viability, T/C [24]: 14%
- viability, T/C [25]: 52.7%
- viability, T/C [26]: 29.4%
- viability, T/C [27]: 23%
- viability, T/C [28]: 18.2%
- viability, T/C [29]: 11.8%
- viability, T/C [30]: 9.5%
- viability, T/C [31]: 63.3%
- viability, T/C [32]: 30.2%
- viability, T/C [33]: 27.9%
- viability, T/C [34]: 21.4%
- viability, T/C [35]: 18%
- viability, T/C [36]: 11.7%

Compound: CC1COCCN1c1cc(C2(O)CC3CCC(C2)O3)c2cnn(-c3ccn[nH]3)c2n1 (stereo not drawn) + Cc1[nH]c2ccc(F)cc2c1-c1nc2c3cccnc3c3ncccc3c2[nH]1
- IC50 (second compound 0.0316 µM): 339 nM
- IC50 (second compound 0.1 µM): 352 nM
- IC50 (second compound 0.316 µM): 282 nM
- IC50 (second compound 1 µM): 210 nM
- IC50 (second compound 3.16 µM): < 31.6 nM
- IC50 (second compound 10 µM): < 31.6 nM
- viability, T/C [1]: 114%
- viability, T/C [2]: 103%
- viability, T/C [3]: 51.9%
- viability, T/C [4]: 16.9%
- viability, T/C [5]: 12.2%
- viability, T/C [6]: 8.69%
- viability, T/C [7]: 113%
- viability, T/C [8]: 94.9%
- viability, T/C [9]: 54%
- viability, T/C [10]: 18%
- viability, T/C [11]: 13.2%
- viability, T/C [12]: 7.58%
- viability, T/C [13]: 122%
- viability, T/C [14]: 85%
- viability, T/C [15]: 47.8%
- viability, T/C [16]: 19.7%
- viability, T/C [17]: 13.3%
- viability, T/C [18]: 9.21%
- viability, T/C [19]: 79.1%
- viability, T/C [20]: 67.4%
- viability, T/C [21]: 40.7%
- viability, T/C [22]: 16.6%
- viability, T/C [23]: 13.3%
- viability, T/C [24]: 8.26%
- viability, T/C [25]: 31.5%
- viability, T/C [26]: 17.9%
- viability, T/C [27]: 13.5%
- viability, T/C [28]: 11.2%
- viability, T/C [29]: 6.29%
- viability, T/C [30]: 1.15%
- viability, T/C [31]: 39%
- viability, T/C [32]: 18.9%
- viability, T/C [33]: 18.6%
- viability, T/C [34]: 9.83%
- viability, T/C [35]: 11.4%
- viability, T/C [36]: 3.18%

Compound: CC1COCCN1c1cc(C2(S(C)(=N)=O)CC2)nc(-c2ccnc3[nH]ccc23)n1 (stereo not drawn) + Cc1[nH]c2ccc(F)cc2c1-c1nc2c3cccnc3c3ncccc3c2[nH]1
- IC50 (second compound 0.0316 µM): 7110 nM
- IC50 (second compound 0.1 µM): 8020 nM
- IC50 (second compound 0.316 µM): 9010 nM
- IC50 (second compound 1 µM): 7960 nM
- IC50 (second compound 3.16 µM): 1300 nM
- IC50 (second compound 10 µM): 2110 nM
- viability, T/C [1]: 105%
- viability, T/C [2]: 107%
- viability, T/C [3]: 99.4%
- viability, T/C [4]: 92%
- viability, T/C [5]: 64.5%
- viability, T/C [6]: 43.9%
- viability, T/C [7]: 113%
- viability, T/C [8]: 106%
- viability, T/C [9]: 107%
- viability, T/C [10]: 98.2%
- viability, T/C [11]: 74.4%
- viability, T/C [12]: 44.2%
- viability, T/C [13]: 106%
- viability, T/C [14]: 105%
- viability, T/C [15]: 112%
- viability, T/C [16]: 109%
- viability, T/C [17]: 78.7%
- viability, T/C [18]: 47.2%
- viability, T/C [19]: 108%
- viability, T/C [20]: 109%
- viability, T/C [21]: 115%
- viability, T/C [22]: 112%
- viability, T/C [23]: 82%
- viability, T/C [24]: 42%
- viability, T/C [25]: 107%
- viability, T/C [26]: 88.7%
- viability, T/C [27]: 83.3%
- viability, T/C [28]: 57%
- viability, T/C [29]: 27.8%
- viability, T/C [30]: 12.9%
- viability, T/C [31]: 94.5%
- viability, T/C [32]: 107%
- viability, T/C [33]: 104%
- viability, T/C [34]: 74.9%
- viability, T/C [35]: 36.9%
- viability, T/C [36]: 15.4%
